Drawing on patent US8658668B2, “PI3 kinase/mTOR dual inhibitor” (Eli Lilly and Company, priority 2011, dated 2014), this text covers IC50 for one compound.

Common to all, as to format: cell-based
For test [1], the system named is PXF 1752 human tumor xenograft cells. The experiment in a line: Oncotest tumor clonogenic assay, PXF 1752. Conditions: colony formation, Pleuramesothelioma PXF 1752, pleuramesothelioma, read-out: Absolute IC50.
The test system of a further test is SJSA-1. Nature of the test: Cell proliferation assay (CellTiter-Glo), SJSA-1. Conditions: Homo sapiens, SJSA-1, 72 h. The method, then: Plate cells in a 96-well plate at 2000 cells/well in 100 μL of cell specific medium (for U87MG use DMEM, 10% FBS, 25 mM 4-(2-hydroxyethyl)-1-piperazineethanesulfonic acid (HEPES), 1.0 mM sodium pyruvate, and 0.1 mM Non Essential Amino Acids (ATCC Cat.#30-2002); for HT1080 use Eagle's MEM, 10% FBS (ATCC Cat.#30-2003); for H1975, A2780, SJSA-1 and 786-O use RPMI 1640, 10% FBS (ATCC Cat.#30-2001); for A204 use McCoy's 5A, 10% FBS (ATCC Cat.#30-2007) except in column 1 use medium only as the blank control. Incubate the plates overnight at 37° C. and 5% CO2. On the next day, prepare compound stocks at 1 mM in DMSO and serially dilute in DMSO in a 96-well round bottom polypropylene plate. Assay compounds at 10 concentrations in duplicate, 4 compounds per plate.
Transfer 4 μL of the DMSO serial dilutions to a 96 well plate and add 196 μL of culture medium to create a 10× stock for dosing. Gently transfer 11 μL of each dosing stock to the corresponding well of the cell plate resulting in a 0.2% DMSO concentration and a 111 μL final volume. […]
Prepared the CellTiter-Glo reagent (Promega, Cat: G7571) and add 100 µL to each well after the incubation is complete, homogenize the cells by mixing on an orbital shaker for 2 min and then incubate at RT for 10 min to allow the luminescent signal to stabilize. Record the luminescent raw data with a Wallac Victor V plate reader. […]

In another test the test system is P70S6(pT389). Nature of the test: AlphaScreen SureFire p-p70S6 kinase (Thr389) in U87MG cells. The following applies: Homo sapiens, U-87 MG, 1 h, n = 4, read-out: P70S6(pT389) Absolute IC50. How it is done:
This homogeneous assay format uses immuno-sandwich capture of the phosphorylated analyte and then detection with antibody-coated Alphascreen beads to generate an amplified signal.
Maintain U87MG cells in U87MG growth medium consisting of DMEM (GIBCO 11965-092) supplemented with 10% fetal bovine serum (FBS, GIBCO, 10091-141), 1% nonessential amino acids (GIBCO, 11140-050) and 1% sodium pyruvate (GIBCO, 11360-070). Harvest cells using standard cell culture procedures and then count using Vi-Cell. Plate 100 μL of U87MG cells in growth medium (50,000 cells/well) into Costar #3596 96 well plates and incubate overnight at 37° C., 5% CO2.
Incubate for one h at 37° C., then remove the medium and add 50 μL of 1× SureFire Lysis Buffer (TGR Biosciences SureFire® Kit component) to each well and incubate at room temperature for 10 min with gentle shaking Transfer 6 μL lysate and 10 μL reaction mixture (60 parts reaction buffer/10 parts activation buffer/1 part each of donor and acceptor beads, Perkin Elmer, 6760617R) to a 384 well proxiplate (Perkin Elmer, 6006280) for the p-p70S6 kinase (Thr389) and p-AKT(Ser473) assays. Seal the plate and incubate at RT for 4 h. […] Read the plates on a Perkin Elmer EnVision equipped with a TurboModule using standard AlphaScreen® settings (Ex680 nm and Em520-620 nm). […]

The subject of test [2] is LXFL 430 human tumor xenograft cells. Nature of the test: Oncotest tumor clonogenic assay, LXFL 430. Conditions: colony formation, NSCLC LXFL 430, large cell lung carcinoma, pd, read-out: Absolute IC50.
For test [3], the system named is GXF 97 human tumor xenograft cells. The experiment in a line: Oncotest tumor clonogenic assay, GXF 97. The following applies: colony formation, Gastric GXF 97, adeno carcinoma, wd, read-out: Absolute IC50.
Test [4] relates to CXF 280 human tumor xenograft cells. The experiment in a line: Oncotest tumor clonogenic assay, CXF 280. The following applies: colony formation, Colon CXF 280, adeno carcinoma, pd, read-out: Absolute IC50.
The subject of test [5] is CXF 975 human tumor xenograft cells. Nature of the test: Oncotest tumor clonogenic assay, CXF 975. Conditions: colony formation, Colon CXF 975, adeno carcinoma, md, read-out: Absolute IC50.
Test [6] has as its system PRXF PC3M human tumor xenograft cells. The experiment in a line: Oncotest tumor clonogenic assay, PRXF PC3M. Conditions: PC-3M, colony formation, Prostate PRXF PC3M, adeno carcinoma, metastatic, pd, read-out: Absolute IC50.

For orientation: IC50 means the concentration that inhibits the measured activity by half. On to `CO[C@@H](C)Cn1c(=O)n(C)c2cnc3ccc(-c4cncc(C(C)(C)O)c4)cc3c21` [Example 1, 8-[5-(1-Hydroxy-1-methylethyl)pyridin-3-yl]-1-[(2S)-2-methoxypropyl]-3-methyl-1,3-dihydro-2H-imidazo[4,5-c]quinolin-2-one], for which the IC50 in test [1] amounted to 0.032 µM; with SJSA-1, 0.096 µM; with P70S6(pT389), 0.0106 µM; in test [2], 0.056 µM; in test [3], 0.101 µM; in test [4] it was 0.007 µM. The figures for the IC50 in test [5] and in test [6] were 0.142 µM and 0.208 µM, respectively.
